Literature values in US20100112083A1, “PHARMACEUTICAL PRODUCT FOR MODULATING BONE FORMATION, PROCESS FOR MODULATING BONE FORMATION” (priority 2007, published 2010).

Tested on: mesenchymal stem cells
Conditions: by activating sirtuin protein Sirt1

Oc1ccc(/C=C/c2cc(O)cc(O)c2)cc1 [trans-resveratrol]
differentiation of mesenchymal stem cells into osteoblasts: promoted the selective differentiation
